Reference: patent US7045532B2 (Millennium Pharmaceuticals, Inc., priority 1999, dated 2006)
pKi: −log10 of the molar value.

Key:
ACE-2 = molecular target: T1, ACE-2 (Homo sapiens, UniProt Q9BYF1); experiment: ACE-2 Competitive Substrate Assay (ACS Assay); assay type: biochemical; details: Ki class; compounds tested in 5% DMSO, 12 concentrations; read-out: Human ACE-2 Activity
T1 construct: a stop codon inserted after the serine immediately preceding the transmembrane domain; made in house; host or cells: CHO K1 cells (transient transfection, purified from conditioned medium)
T1 sequence (Q9BYF1 18-740 limits assumed): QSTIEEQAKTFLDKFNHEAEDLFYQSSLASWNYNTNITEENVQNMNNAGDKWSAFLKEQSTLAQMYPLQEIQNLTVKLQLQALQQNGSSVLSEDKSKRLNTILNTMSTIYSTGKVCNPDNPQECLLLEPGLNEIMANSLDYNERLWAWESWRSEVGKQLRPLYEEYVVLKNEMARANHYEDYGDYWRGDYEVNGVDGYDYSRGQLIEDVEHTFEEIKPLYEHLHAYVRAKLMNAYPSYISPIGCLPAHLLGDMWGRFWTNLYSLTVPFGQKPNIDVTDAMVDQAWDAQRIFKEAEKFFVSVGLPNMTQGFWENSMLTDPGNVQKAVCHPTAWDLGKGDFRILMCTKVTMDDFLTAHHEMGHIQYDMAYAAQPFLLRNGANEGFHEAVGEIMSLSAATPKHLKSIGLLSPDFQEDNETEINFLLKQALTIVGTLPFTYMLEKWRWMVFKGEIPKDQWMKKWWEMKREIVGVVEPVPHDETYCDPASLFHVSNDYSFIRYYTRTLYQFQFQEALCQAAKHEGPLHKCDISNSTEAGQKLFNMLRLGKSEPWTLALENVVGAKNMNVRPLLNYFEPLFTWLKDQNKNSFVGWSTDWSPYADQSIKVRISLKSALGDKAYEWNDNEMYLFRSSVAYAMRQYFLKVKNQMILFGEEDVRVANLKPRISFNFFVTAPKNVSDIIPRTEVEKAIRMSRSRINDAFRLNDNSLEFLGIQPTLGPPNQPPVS
Method: An example of such an assay is the ACE-2 Competitive Substrate Assay (ACS Assay).
ACE-2 enzymatic activity was assayed in microtitre plates by the following procedure. The ACE-2 assay buffer used contained 50 mM MES (Boehringer-Mannheim), 300 mM NaCl (Sigma) and 0.01% Brij-35 (Pierce Chemical Co.) at pH 6.5.
The following reagents, equipment, stock solutions, and working solutions are used for the ACE-2 assay.
The assay buffer is prepared using 50 mM Mes, 300 mM NaCl, and 0.01% Brij 35, pH 6.5. These components are measured and made up to approximately 800 ml with nanopure water. Using 1M NaOH the pH is adjusted to 6.5 and the solution is then made up to the final volume of 1 L using nanopure water. The buffer is filtered through a 0.45 um disposable filter unit and stored at +4° C. until needed.
This working solution maintains activity for up to 8 hours at room temperature.
The working ACE-2 solution (for using with Mca-APK(Dnp)) is prepared by thawing ACE-2 and diluting it to a concentration of 1 nM using the assay buffer at room temperature.
These solutions are stable up to 8 hours but can not be frozen-thawed for reuse.
Multiple well plates are used for this experiment.
Approximately 360 compounds are tested per plate. Five μl per of each test compound is added in each well. […] Immediately thereafter, 20 μl of Mca-XXX(Dnp) working solution is added per well and mixed for 30 seconds. The reaction is allowed to progress for approximately 60 minutes.
After approximately 60 minutes, 20 μl of 50 mM EDTA is added per well (reaction is linear up to 90 minutes) and mixed for 30 seconds. At this point the fluorescent signal is stable up to 20 hours at room temperature.

Carboxypeptidase A = molecular target: T2, Carboxypeptidase A (Bos taurus, UniProt P00730); experiment: Carboxypeptidase A activity assay; assay type: biochemical; details: Ki class; compounds tested in 5% DMSO, 12 concentrations
T2 sequence (P00730 111-419): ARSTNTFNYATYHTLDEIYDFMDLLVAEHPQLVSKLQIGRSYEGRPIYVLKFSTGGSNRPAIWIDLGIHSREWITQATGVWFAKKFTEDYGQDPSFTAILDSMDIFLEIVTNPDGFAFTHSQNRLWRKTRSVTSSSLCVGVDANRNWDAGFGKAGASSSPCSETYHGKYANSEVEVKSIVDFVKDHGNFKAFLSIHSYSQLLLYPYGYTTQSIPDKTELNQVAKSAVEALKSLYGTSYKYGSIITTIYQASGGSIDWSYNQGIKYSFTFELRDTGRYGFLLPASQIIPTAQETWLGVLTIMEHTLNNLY
Method: Carboxypeptidase A activity was measured using a literature assay (Holmquist and Riordan, “Carboxypeptidase A,” Methods of Enzymatic Analysis (1984) p. 44–60). The assay was adapted to a 96 well format by adjusting to a 300 μL assay volume and using ultra-thin bottom plates (Costar/Corning) read at 328 nm. The assay was stopped using EDTA.
The activity of the test compounds was investigated using the procedure outlined above. The compounds were tested in 5% DMSO. Enzyme activity was measured at 12 compound concentrations. The Ki was calculated by using Ki=Kiapp/(1+[S]/Km).
To determine whether a test compound is capable of modulating carboxypeptidase A's ability to cleave a substrate the method described in Holmquist and Riordan, Carboxypeptidase A, p44–60, Peptidase and Their Inhibitors in Method of Enzymatic Analysis (1984), may be used.
The assay may be adapted to a 96 well format by adjusting to a 300 μl assay volume and using ultrathin bottom plates (Costar/Coming) read at 328 nm with a final assay volume of 300 μl. The assay may be stopped using EDTA.

ACE (Sigma, A2580) = molecular target: T3, ACE (Sigma, A2580) (Sus scrofa, UniProt F1RRW5); experiment: ACE enzymatic activity assay; assay type: biochemical, porcine; details: Ki class; compounds tested in 5% DMSO, 12 concentrations
T3 construct: ACE from porcine kidney; purchased Sigma A2580; host or cells: porcine kidney
T3 sequence (F1RRW5 34-1309): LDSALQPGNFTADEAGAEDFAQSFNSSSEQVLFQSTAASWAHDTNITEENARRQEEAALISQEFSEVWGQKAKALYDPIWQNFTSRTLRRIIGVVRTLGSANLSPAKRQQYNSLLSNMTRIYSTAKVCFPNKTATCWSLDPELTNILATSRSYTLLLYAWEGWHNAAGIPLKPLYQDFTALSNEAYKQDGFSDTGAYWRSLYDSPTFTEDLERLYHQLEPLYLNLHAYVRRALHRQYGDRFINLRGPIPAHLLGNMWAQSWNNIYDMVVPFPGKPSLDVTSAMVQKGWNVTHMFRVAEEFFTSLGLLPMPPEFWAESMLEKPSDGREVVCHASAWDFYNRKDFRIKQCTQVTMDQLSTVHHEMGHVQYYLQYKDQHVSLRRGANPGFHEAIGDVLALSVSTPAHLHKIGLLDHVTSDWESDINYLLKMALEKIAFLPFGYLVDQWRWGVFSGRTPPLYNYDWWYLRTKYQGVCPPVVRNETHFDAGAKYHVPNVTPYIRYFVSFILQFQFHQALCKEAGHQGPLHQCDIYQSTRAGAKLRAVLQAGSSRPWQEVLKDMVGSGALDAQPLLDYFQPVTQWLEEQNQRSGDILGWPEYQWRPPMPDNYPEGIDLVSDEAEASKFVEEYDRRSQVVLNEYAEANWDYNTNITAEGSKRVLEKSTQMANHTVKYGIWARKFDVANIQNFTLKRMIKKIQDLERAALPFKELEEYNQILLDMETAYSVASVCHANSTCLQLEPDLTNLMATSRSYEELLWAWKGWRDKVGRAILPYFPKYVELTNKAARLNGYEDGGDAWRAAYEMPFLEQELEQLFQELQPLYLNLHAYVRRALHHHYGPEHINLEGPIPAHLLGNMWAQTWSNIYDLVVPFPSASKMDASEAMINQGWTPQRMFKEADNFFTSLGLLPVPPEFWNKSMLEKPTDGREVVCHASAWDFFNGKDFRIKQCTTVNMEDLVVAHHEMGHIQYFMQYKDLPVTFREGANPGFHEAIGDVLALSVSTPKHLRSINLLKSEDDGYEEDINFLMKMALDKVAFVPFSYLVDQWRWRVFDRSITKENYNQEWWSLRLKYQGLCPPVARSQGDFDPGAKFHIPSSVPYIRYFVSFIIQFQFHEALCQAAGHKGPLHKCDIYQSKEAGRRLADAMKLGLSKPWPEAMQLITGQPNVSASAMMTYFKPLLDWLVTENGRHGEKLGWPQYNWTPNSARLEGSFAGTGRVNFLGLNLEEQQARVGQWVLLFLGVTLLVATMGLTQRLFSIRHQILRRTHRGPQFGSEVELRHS
Method: ACE (Sigma, A2580) enzymatic activity was assayed in microtiter plates using the following protocol. ACE assay buffer was made from 50 mM HEPES (Sigma), 300 mM sodium chloride (Sigma), and 0.01% Brij-35 (Pierce Chemical Co) at pH 7.5.
Reactions were mixed and incubated at 25° C. Enzymatic cleavage of the substrate is marked by a fluorescence change (excitation 330 nm, emission 415 nm).
The activity of the test compounds was investigated using the procedure outlined above. The compounds were tested in 5% DMSO. Enzyme activity was measured at 12 compound concentrations. […]. […]

| SMILES | pKi (ACE-2) | pKi (Carboxypeptidase A) | pKi (ACE (Sigma, A2580)) |
| --- | --- | --- | --- |
| CC(C)C[C@H](NCc1ccc(C(=O)O)cc1)C(=O)O [CN, 4-[(1-Carboxy-3-methyl-butylamino)-methyl]-benzoic acid] | < 6.30 | < 4.30 | < 4.30 |
| O=C(O)[C@H](CC1CCCCC1)N[C@@H](C(=O)O)c1ccccc1 [BP, 2-[(Carboxy-phenyl-methyl)-amino]-3-cyclohexyl-propionic acid] | < 6.30 | < 4.30 | < 4.30 |
| CSCC[C@H](NC(CC(C)C)C(=O)O)C(=O)O (stereo partly drawn) [AN, 2-(1-Carboxy-3-methylsulfanyl-propylamino)-4-methyl-pentanoic acid] | < 6.30 | 4.30 to 5.00 | < 4.30 |
| CCCCC(CC(=O)O)N[C@@H](Cc1c[nH]cn1)C(=O)O (single isomer, unassigned) [ES, 3-[1-Carboxy-2-(1H-imidazol-4-yl)-ethylamino]heptanoic acid] | < 6.30 | < 4.30 | < 4.30 |
| O=C(O)[C@H](NC1(C(=O)O)CCCCC1)c1ccccc1 [BY, 1-[(Carboxy-phenyl-methyl)-amino]-cyclohexanecarboxylic acid] | < 6.30 | < 4.30 | < 4.30 |
| CC(C)C[C@H](N[C@H](CCc1ccccc1)C(=O)O)C(=O)OC(C)(C)C [DA, 2-(1-Carboxy-3-phenyl-propylamino)-4-methyl-pentanoic acid tert-butyl ester] | < 6.30 | < 4.30 | < 4.30 |
| C#CCC(N[C@@H](C(=O)O)c1ccccc1)C(=O)O (stereo partly drawn) [BN, 2-[(Carboxy-phenyl-methyl)-amino]-pent-4-ylnoic acid] | < 6.30 | < 4.30 | < 4.30 |
| CCC(NC(Cc1cccs1)C(=O)O)C(=O)O (stereo not drawn) [AK, 2-(1-Carboxy-2-thiophen-2-yl-ethylamino)-butync acid] | < 6.30 | < 4.30 | < 4.30 |
| CC(N[C@@H](Cc1c[nH]c2ccccc12)C(=O)O)C(=O)O (stereo partly drawn) [AG, 2-(1-Carboxy-ethylamino)-3-(1H-indol-3-yl)-propionic acid] | < 6.30 | < 4.30 | < 4.30 |
| CC(C)CC(NC(Cc1cccs1)C(=O)O)C(=O)O (stereo not drawn) [AL, 2-(1-Carobxy-2-thiophen-2-yl-ethylamino)-4-methyl-pentanoic acid] | < 6.30 | < 4.30 | < 4.30 |
| CC(C)CC(NC(CC(=O)O)c1ccccc1)C(=O)O (stereo not drawn) [CQ, 2-(2-Carboxy-1-phenyl-ethylamino)-4-methyl-pentanoic acid] | < 6.30 | < 4.30 | < 4.30 |
| CC(C)CC(N[C@@H](CNc1ccccc1)C(=O)O)C(=O)O (single isomer, unassigned) [FI, 2-(1-Carboxy-2-phenylamino-ethylamino)-4-methyl-pentanoic acid] | < 6.30 | < 4.30 | < 4.30 |
| CCCC(N[C@@H](CCSC)C(=O)O)C(=O)O (stereo in doubt) [AO, 2-(1-Carboxy-3-methylsulfanyl-propylamino)-pentanoic acid] | < 6.30 | < 4.30 | < 4.30 |
| CCCCC(N[C@@H](CC(C)C)C(=O)O)C(=O)O (stereo partly drawn) [Q, 2-(1-Carboxy-3-methyl-butylamino)-hexanoic acid] | < 6.30 | < 4.30 | < 4.30 |
| CCCC(N[C@@H](CC(C)C)C(=O)O)C(=O)O (stereo in doubt) [AQ, 2-(1-Carboxy-butylamino)-4-methyl-pentanoic acid] | < 6.30 | < 4.30 | < 4.30 |
| CC(C)CC(N[C@H](CC(=O)O)Cc1ccsc1)C(=O)O (stereo in doubt) [EJ, 2-(1-Carboxymethyl-2-thiophen-3-yl-ethylamino)-4-methyl-pentanoic acid] | < 6.30 | < 4.30 | < 4.30 |
| CC(C)CC(N[C@@H](Cc1cncn1Cc1ccc(C(=O)O)cc1)C(=O)O)C(=O)O (single isomer, unassigned) [GO, 4-[5-[2-Carboxy-2-(1-carboxy-3-methyl-butylamino)-ethyl]-imidazol-1-ylmethyl]-benzoic acid] | < 6.30 | < 4.30 | < 4.30 |
| CC(C)C[C@@H](NC(CCc1ccccc1)C(=O)O)C(=O)O (stereo partly drawn) [BH, 2-(1-Carboxy-3-phenyl-propylamino)-4-methyl-pentanoic acid] | < 6.30 | < 4.30 | < 4.30 |
| O=C(O)C(CCc1ccccc1)N[C@@H](CC1CCCCC1)C(=O)O (stereo partly drawn) [BG, 2-(1-Carboxy-2-cyclohexyethylamino)-4-phenyl-butync acid] | < 6.30 | < 4.30 | < 4.30 |
| O=C(O)C(Cc1ccccc1)NC(C(=O)O)c1ccccc1 (stereo not drawn) [BO, 2-[(Carboxy-phenyl-methyl)-amino]-3-phenyl-propionic acid] | < 6.30 | 4.30 to 5.00 | < 4.30 |
| CC(C)C[C@H](NC(=O)NCc1ccccc1)C(=O)O [DU, 2-(3-Benzyl-ureido)-4-methyl-pentanoic acid] | < 6.30 | 4.30 to 5.00 | < 4.30 |
| CCCC(N[C@@H](Cc1c[nH]cn1)C(=O)O)C(=O)O (stereo in doubt) [AF, 2-[1-Carboxy-2-(1H-imidazol-4-yl)-ethylamino]pentanoic acid] | < 6.30 | < 4.30 | < 4.30 |
| CC(=O)N(C(CCc1ccccc1)C(=O)O)[C@@H](CC(C)C)C(=O)O (single isomer, unassigned) [AT, 2-[Acetyl-(1-carboxy-3-phenyl-propyl)-amino]-4-methyl-pentanoic acid] | < 6.30 | < 4.30 | < 4.30 |
| CC(C)C[C@H](NC(=O)NCCc1ccccc1)C(=O)O [DV, 4-Methyl-2-(3-phenethyl-ureido)-pentanoic acid] | < 6.30 | > 5.00 | < 4.30 |
| CC(C)C[C@H](N[C@@H](CCc1ccccc1)C(=O)O)C(=O)OC(C)(C)C [CZ, 2-(1-Carboxy-3-phenyl-propylamino)-4-methyl-pentanoic acid tert-butyl ester] | < 6.30 | < 4.30 | < 4.30 |
| CC(C)CC(NCCc1c[nH]cn1)C(=O)O (stereo not drawn) [DZ, 2-[2-(1H-imidazol-4-yl)-ethylamino]-4-methyl-pentanoic acid] | < 6.30 | < 4.30 | < 4.30 |
